Key:
[1] = test system: type II collagen-induced arthritis; assay: type II collagen-induced arthritis model; format: in vivo, DBA/1 strain mouse; conditions: for bone destruction score: 26th day after the secondary sensitization
Method: A solution (4 mg/ml) of bovine joint cartilage type II collagen in diluted hydrochloric acid was mixed with Freund' s complete adjuvant of the same volume to prepare an emulsion. As a primary sensitization, this emulsion was injected intra-dermally into tail root site of DBA/1 strain mouse at a dose of 100 µl (corresponding to 200 µg of the type II collagen per mouse). After 21 days from the primary sensitization, 100 µl of this emulsion was injected intra-dermally into a tail root site of the mouse again (secondary sensitization). […] 5% carboxymethyl cellulose and a nonsteroidal anti-inflammatory drug was suspended in 1% methyl cellulose. With regard to the confirmation of onset of arthritis, the stage where swelling at the site of joint accompanied by erythema was defined as the onset of arthritis. With regard to degree of the arthritis, scoring was conducted for each paw according to the evaluating criterion for arthritis grade as mentioned below and the total point for four paws was used as an arthritic score. • 0: no change • 1: weak swelling and weak erythema were observed • 2: weak swelling and erythema were observed • 3: strong swelling and erythema were observed • 4: strong swelling and erythema accompanied by bone erosion were observed Then, on the 26th day after the secondary sensitization, X-ray photographs of the joints of four paws were taken.

[2] = test system: adjuvant-induced arthritis; assay: adjuvant-induced arthritis model; format: in vivo, rat
Method: A suspension (0.6 mg/100 µl) of Mycobacterium butyricum (adjuvant) in liquid paraffin was injected subcutaneously into a left hind paw of rat (male; nine weeks age; body weight being about 240 grams) to induce arthritis.
Incidentally, as a control, a suspension not containing a test compound was administered by the same manner as above.

[3] = test system: hepatic allotransplantation; conditions: rats; Surg. Today, 26, 419-426(1996); cited from earlier work
[4] = diclofenac sodium alone 3 mg/kg, oral once a day
[5] = present compound alone 100 mg/kg, oral once a day

Compound | arthritic score [1, 4] | effect of delaying the onset of arthritis [1, 4] | bone destruction score ([1]; diclofenac sodium alone 3 mg/kg) | arthritic score [1, 5] | incidence of arthritis [1, 5] | bone destruction score ([1]; present compound alone 100 mg/kg) | incidence of arthritis ([1]; present compound alone 200 mg/kg, oral once a day, tendency = nearly as control, as at 100 mg/kg) | arthritic score ([1]; present compound alone 200 mg/kg, oral once a day, tendency = slight improvement as at 100 mg/kg) | bone destruction score ([1]; present compound alone 200 mg/kg) | pathohistological test: bone destruction, edema, etc. ([2]; present compound alone) | edema of left hindpaw (paw volume) ([2]; present compound alone 100 mg/kg, oral once a day from the 14th day after adjuvant) | immunosuppressive action to hepatic allotransplantation [3]
O=C(O)Cc1ccccc1Nc1c(Cl)cccc1Cl [diclofenac sodium, reference compound] | improvement in the arthritic score was recognized | no effect of delaying the onset of arthritis was recognized | a suppressive effect was recognized but the instant effect was far weaker than in the case of the combination administration | – | – | – | – | – | – | – | – | –
COc1ccc(/C=C/CCCCOc2cccc(OCCCCC(=O)O)c2CCC(=O)O)cc1 [the present compound, 3-[1-[6-(4-methoxyphenyl)hex-5E-enyl]oxy-3-(4-carboxylbutyl)oxybenzen-2-yl]propionic acid] | – | – | – | improvement was recognized slightly | nearly the same proceeding as in the control group | no suppressive effect was recognized at all | Such a tendency was unchanged | Such a tendency was unchanged | the suppressive effect was hardly recognized | nearly no suppressive effect | nearly no suppressive effect on edema was recognized | shows an immunosuppressive action

From EP0891772A2, “Therapeutic agent for rheumatic disease comprising nonsteroidal anti-inflamatory drug and phenylpropionic acid derivative” (SANTEN PHARMACEUTICAL CO., LTD., priority 1997, dated 1999)
